In PubChem BioAssay (NCI):
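48-hour exposure; five concentrations; linearly interpolated endpoints. TGI: concentration producing complete growth inhibition.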

Key:
Test in all cases: growth of human tumour cells (NCI), 48 h
[1] = test system: SK-MEL-2 melanoma
[2] = test system: SF-539 CNS
[3] = test system: DU-145 prostate
[4] = test system: NCI/ADR-RES ovarian
[5] = test system: HT29 colon
[6] = test system: ACHN renal
[7] = test system: HL-60(TB) leukemia
[8] = test system: MCF7 breast
[9] = test system: HCC-2998 colon
[10] = test system: HOP-62 NSCLC
[11] = test system: UO-31 renal
[12] = test system: SK-MEL-28 melanoma
[13] = test system: SK-OV-3 ovarian
[14] = test system: CCRF-CEM leukemia
[15] = test system: NCI-H23 lung
[16] = test system: SW-620 colon
[17] = test system: KM12 colon
[18] = test system: SF-295 CNS
[19] = test system: T-47D breast
[20] = test system: OVCAR-8 ovarian
[21] = test system: SF-268 CNS
[22] = test system: HCT-116 colon
[23] = test system: U251 CNS
[24] = test system: OVCAR-5 ovarian
[25] = test system: UACC-62 melanoma
[26] = test system: K-562 leukemia
[27] = test system: SNB-19 CNS
[28] = test system: MOLT-4 leukemia
[29] = test system: RPMI-8226 leukemia
[30] = test system: LOX IMVI melanoma
[31] = test system: CAKI-1 renal
[32] = test system: SNB-75 CNS
[33] = test system: SR leukemia
[34] = test system: A498 renal
[35] = test system: EKVX NSCLC
[36] = test system: OVCAR-3 ovarian
[37] = test system: OVCAR-4 ovarian
[38] = test system: MDA-N
[39] = test system: HOP-92 NSCLC
[40] = test system: 786-0 renal
[41] = test system: IGROV1 ovarian
[42] = test system: SK-MEL-5 melanoma
[43] = test system: COLO 205 colon
[44] = test system: NCI-H522 lung
[45] = test system: HS 578T breast
[46] = test system: BT-549 breast
[47] = test system: NCI-H226 lung
[48] = test system: MDA-MB-231 breast
[49] = test system: HCT-15 colon
[50] = test system: TK-10 renal
[51] = test system: MDA-MB-435
[52] = test system: M14 melanoma
[53] = test system: MALME-3M melanoma
[54] = test system: UACC-257 melanoma
[55] = test system: NCI-H460 lung
[56] = test system: PC-3 prostate
[57] = test system: A549 NSCLC
[58] = test system: SN12C renal
[59] = test system: RXF 393 renal

## OCCCSCCO
[1]
  TGI: > 100 µM
[2]
  TGI: > 100 µM
[3]
  TGI: > 100 µM
[4]
  TGI: > 100 µM
[5]
  TGI: > 100 µM
[6]
  TGI: > 100 µM
[7]
  TGI: > 100 µM
[8]
  TGI: > 100 µM
[9]
  TGI: > 100 µM
[10]
  TGI: > 100 µM
[11]
  TGI: > 100 µM
[12]
  TGI: > 100 µM
[13]
  TGI: > 100 µM
[14]
  TGI: > 100 µM
[15]
  TGI: > 100 µM
[16]
  TGI: > 100 µM
[17]
  TGI: > 100 µM
[18]
  TGI: > 100 µM
[19]
  TGI: > 100 µM
[20]
  TGI: > 100 µM
[21]
  TGI: > 100 µM
[22]
  TGI: > 100 µM
[23]
  TGI: > 100 µM
[24]
  TGI: > 100 µM
[25]
  TGI: > 100 µM
[26]
  TGI: > 100 µM
[27]
  TGI: > 100 µM
[28]
  TGI: > 100 µM
[29]
  TGI: > 100 µM
[30]
  TGI: > 100 µM
[31]
  TGI: > 100 µM
[32]
  TGI: > 100 µM
[33]
  TGI: > 100 µM
[34]
  TGI: > 100 µM
[35]
  TGI: > 100 µM
[36]
  TGI: > 100 µM
[37]
  TGI: > 100 µM
[38]
  TGI: > 100 µM
[39]
  TGI: > 100 µM
[40]
  TGI: > 100 µM
[41]
  TGI: > 100 µM
[42]
  TGI: > 100 µM
[43]
  TGI: > 100 µM
[44]
  TGI: > 100 µM
[45]
  TGI: > 100 µM
[46]
  TGI: > 100 µM
[47]
  TGI: > 100 µM
[48]
  TGI: > 100 µM
[49]
  TGI: > 100 µM
[50]
  TGI: > 100 µM
[51]
  TGI: > 100 µM
[52]
  TGI: > 100 µM
[53]
  TGI: > 100 µM
[54]
  TGI: > 100 µM
[55]
  TGI: > 100 µM
[56]
  TGI: > 100 µM
[57]
  TGI: > 100 µM
[58]
  TGI: > 100 µM

## O/C(=C\c1nc2ccccc2nc1/C=C(\O)c1ccc(F)cc1)c1ccc(F)cc1
[1]
  TGI: > 100 µM
[2]
  TGI: > 100 µM
[3]
  TGI: > 100 µM
[4]
  TGI: > 100 µM
[5]
  TGI: > 100 µM
[6]
  TGI: > 100 µM
[7]
  TGI: > 100 µM
[8]
  TGI: > 100 µM
[9]
  TGI: > 100 µM
[10]
  TGI: > 100 µM
[11]
  TGI: > 100 µM
[12]
  TGI: > 100 µM
[14]
  TGI: > 100 µM
[15]
  TGI: > 100 µM
[16]
  TGI: > 100 µM
[17]
  TGI: > 100 µM
[19]
  TGI: > 100 µM
[20]
  TGI: > 100 µM
[21]
  TGI: > 100 µM
[22]
  TGI: > 100 µM
[23]
  TGI: > 100 µM
[24]
  TGI: > 100 µM
[25]
  TGI: > 100 µM
[26]
  TGI: > 100 µM
[27]
  TGI: > 100 µM
[28]
  TGI: > 100 µM
[29]
  TGI: > 100 µM
[30]
  TGI: > 100 µM
[31]
  TGI: > 100 µM
[32]
  TGI: > 100 µM
[33]
  TGI: > 100 µM
[34]
  TGI: > 100 µM
[35]
  TGI: > 100 µM
[36]
  TGI: > 100 µM
[37]
  TGI: > 100 µM
[38]
  TGI: > 100 µM
[39]
  TGI: > 100 µM
[40]
  TGI: > 100 µM
[41]
  TGI: > 100 µM
[42]
  TGI: > 100 µM
[43]
  TGI: > 100 µM
[44]
  TGI: > 100 µM
[45]
  TGI: > 100 µM
[46]
  TGI: > 100 µM
[47]
  TGI: > 100 µM
[48]
  TGI: > 100 µM
[49]
  TGI: > 100 µM
[50]
  TGI: > 100 µM
[59]
  TGI: > 100 µM
[51]
  TGI: > 100 µM
[52]
  TGI: > 100 µM
[53]
  TGI: > 100 µM
[54]
  TGI: > 100 µM
[55]
  TGI: > 100 µM
[56]
  TGI: > 100 µM
[57]
  TGI: > 100 µM
[58]
  TGI: > 100 µM

## COc1cc(C2SCC(=O)N2c2ccc(NC(C)=O)cc2)cc(OC)c1OC (stereo not drawn)
[1]
  TGI: > 100 µM
[2]
  TGI: > 100 µM
[3]
  TGI: > 100 µM
[4]
  TGI: > 100 µM
[5]
  TGI: > 100 µM
[6]
  TGI: > 100 µM
[7]
  TGI: > 100 µM
[8]
  TGI: > 100 µM
[9]
  TGI: > 100 µM
[11]
  TGI: > 100 µM
[12]
  TGI: > 100 µM
[13]
  TGI: > 100 µM
[14]
  TGI: > 100 µM
[15]
  TGI: > 100 µM
[16]
  TGI: > 100 µM
[17]
  TGI: > 100 µM
[18]
  TGI: > 100 µM
[19]
  TGI: > 100 µM
[20]
  TGI: > 100 µM
[21]
  TGI: > 100 µM
[22]
  TGI: > 100 µM
[23]
  TGI: > 100 µM
[24]
  TGI: > 100 µM
[25]
  TGI: > 100 µM
[26]
  TGI: > 100 µM
[27]
  TGI: > 100 µM
[28]
  TGI: > 100 µM
[29]
  TGI: > 100 µM
[30]
  TGI: > 100 µM
[31]
  TGI: > 100 µM
[33]
  TGI: > 100 µM
[34]
  TGI: > 100 µM
[35]
  TGI: > 100 µM
[36]
  TGI: > 100 µM
[37]
  TGI: > 100 µM
[38]
  TGI: > 100 µM
[39]
  TGI: > 100 µM
[40]
  TGI: > 100 µM
[41]
  TGI: > 100 µM
[42]
  TGI: > 100 µM
[43]
  TGI: > 100 µM
[44]
  TGI: > 100 µM
[45]
  TGI: > 100 µM
[46]
  TGI: > 100 µM
[47]
  TGI: > 100 µM
[48]
  TGI: > 100 µM
[49]
  TGI: > 100 µM
[50]
  TGI: > 100 µM
[51]
  TGI: > 100 µM
[52]
  TGI: > 100 µM
[54]
  TGI: > 100 µM
[55]
  TGI: > 100 µM
[56]
  TGI: > 100 µM
[57]
  TGI: > 100 µM
[58]
  TGI: > 100 µM

## COc1cc(C2c3[nH]c4ccccc4c3[C@@H](Nc3ccc(C#N)cc3)[C@H]3COC(=O)N23)cc(OC)c1O (stereo partly drawn)
[1]
  TGI: 0.752 µM
[2]
  TGI: 0.208 µM
[3]
  TGI: 0.839 µM
[4]
  TGI: > 10 µM
[5]
  TGI: > 10 µM
[6]
  TGI: 0.621 µM
[7]
  TGI: 0.165 µM
[8]
  TGI: 2.7 µM
[9]
  TGI: 0.704 µM
[10]
  TGI: 1.54 µM
[11]
  TGI: 2.57 µM
[12]
  TGI: 2.73 µM
[13]
  TGI: 1.04 µM
[14]
  TGI: 0.404 µM
[15]
  TGI: 2.55 µM
[16]
  TGI: 1.49 µM
[18]
  TGI: 0.734 µM
[19]
  TGI: 3.5 µM
[20]
  TGI: 0.933 µM
[21]
  TGI: 0.909 µM
[22]
  TGI: 2.11 µM
[23]
  TGI: 1.32 µM
[24]
  TGI: 4.54 µM
[25]
  TGI: 0.651 µM
[26]
  TGI: > 10 µM
[27]
  TGI: > 10 µM
[28]
  TGI: 0.0634 µM
[29]
  TGI: 0.688 µM
[30]
  TGI: 0.681 µM
[31]
  TGI: 1.78 µM
[32]
  TGI: 0.763 µM
[33]
  TGI: 0.059 µM
[34]
  TGI: 0.777 µM
[35]
  TGI: 4.32 µM
[36]
  TGI: 2.21 µM
[37]
  TGI: 4.4 µM
[38]
  TGI: 1.57 µM
[39]
  TGI: > 4.61 µM
[40]
  TGI: 0.337 µM
[41]
  TGI: 3 µM
[42]
  TGI: 0.321 µM
[43]
  TGI: > 3.81 µM
[44]
  TGI: 0.547 µM
[45]
  TGI: 2.49 µM
[46]
  TGI: 0.796 µM
[47]
  TGI: 0.651 µM
[48]
  TGI: 2.14 µM
[49]
  TGI: 5.56 µM
[50]
  TGI: 0.866 µM
[59]
  TGI: 4.12 µM
[51]
  TGI: 2.19 µM
[52]
  TGI: 1.58 µM
[53]
  TGI: 1.2 µM
[54]
  TGI: 3.29 µM
[55]
  TGI: 0.342 µM
[56]
  TGI: 6.6 µM
[57]
  TGI: 0.421 µM
[58]
  TGI: 0.625 µM
